The test system of the assay is BAX. The assay is described as follows: In cellulo BRET between TCTP and YFP-fused BAX. Format: cell-based. The settings on record: MCF-7 cells; donor TCTP, acceptor YFP-fused BAX. As to the method: BRET assays were performed as indicated in Bah et al.[41]. See Supplementary Information for full details.
-3Δ before cloning into a pnEA -TH plasmid for expression of an N-terminal 6His fusion protein using NdeI and BamHI restriction sites25. The cDNA of human Bcl-xL protein, target gene bank number BC019307, was ordered from PlasmID (DANA-FARBER/HARVARD CANCER CENTER). Bcl-xL(Δ27-81ΔCT) (deletion of residues 27-81 and C-terminal 24 residues) was cloned in a pnEA-TH25 plasmid for expression as a N-terminal 6His fusion protein. Primers used for the deletion of the C-terminal part are 5'- […]
TTTCG-3', including NdeI and BglII restriction sites respectively. […]
BRET assays were performed as indicated in Bah et al.26. […] Light emissions at 475 nm and 530 nm were measured sequentially using the Mithras ﬂuorescence luminescence detector […]
LB 940 (Berthold, Thoiry, France) after adding the luciferase substrate coelenterazine H (Uptima, MontLucon, France) at a ﬁnal concentration of […]. BRET signals (mB.U,milliBRET Unit) were determined by calculating the ra tio of the light emitted by the acceptor (530 nm) over the light emitted by the donor (475 nm). Background BRET signals, determined by transient transfection of pCMV-Bcl-xL or pCMV-Bax instead of the corresponding pEYFP plasmids, were subtracted from YFP-specific BRET signals. […]
(In general: In BRET a luciferase serves as donor, and the signal depends on an acceptor being close.)

These results are taken from article PMC4728560 (Scientific Reports, 2016).

For the substance “TCTP: Translationally Controlled Tumor Protein (TCTP/tpt1), recombinant full-length”, the “BRET signals with BAX” value was “no specific BRET signals”.
